In BindingDB's records for patent US10851102 (Theravance Biopharma R&D Ip, 2020):

Assays:
[1] = molecular target: Non-receptor tyrosine-protein kinase TYK2 (Homo sapiens, UniProt P29597)
[2] = molecular target: T1, Tyrosine-protein kinase JAK3 (Homo sapiens, UniProt P52333)
T1 sequence (P52333 whole entry): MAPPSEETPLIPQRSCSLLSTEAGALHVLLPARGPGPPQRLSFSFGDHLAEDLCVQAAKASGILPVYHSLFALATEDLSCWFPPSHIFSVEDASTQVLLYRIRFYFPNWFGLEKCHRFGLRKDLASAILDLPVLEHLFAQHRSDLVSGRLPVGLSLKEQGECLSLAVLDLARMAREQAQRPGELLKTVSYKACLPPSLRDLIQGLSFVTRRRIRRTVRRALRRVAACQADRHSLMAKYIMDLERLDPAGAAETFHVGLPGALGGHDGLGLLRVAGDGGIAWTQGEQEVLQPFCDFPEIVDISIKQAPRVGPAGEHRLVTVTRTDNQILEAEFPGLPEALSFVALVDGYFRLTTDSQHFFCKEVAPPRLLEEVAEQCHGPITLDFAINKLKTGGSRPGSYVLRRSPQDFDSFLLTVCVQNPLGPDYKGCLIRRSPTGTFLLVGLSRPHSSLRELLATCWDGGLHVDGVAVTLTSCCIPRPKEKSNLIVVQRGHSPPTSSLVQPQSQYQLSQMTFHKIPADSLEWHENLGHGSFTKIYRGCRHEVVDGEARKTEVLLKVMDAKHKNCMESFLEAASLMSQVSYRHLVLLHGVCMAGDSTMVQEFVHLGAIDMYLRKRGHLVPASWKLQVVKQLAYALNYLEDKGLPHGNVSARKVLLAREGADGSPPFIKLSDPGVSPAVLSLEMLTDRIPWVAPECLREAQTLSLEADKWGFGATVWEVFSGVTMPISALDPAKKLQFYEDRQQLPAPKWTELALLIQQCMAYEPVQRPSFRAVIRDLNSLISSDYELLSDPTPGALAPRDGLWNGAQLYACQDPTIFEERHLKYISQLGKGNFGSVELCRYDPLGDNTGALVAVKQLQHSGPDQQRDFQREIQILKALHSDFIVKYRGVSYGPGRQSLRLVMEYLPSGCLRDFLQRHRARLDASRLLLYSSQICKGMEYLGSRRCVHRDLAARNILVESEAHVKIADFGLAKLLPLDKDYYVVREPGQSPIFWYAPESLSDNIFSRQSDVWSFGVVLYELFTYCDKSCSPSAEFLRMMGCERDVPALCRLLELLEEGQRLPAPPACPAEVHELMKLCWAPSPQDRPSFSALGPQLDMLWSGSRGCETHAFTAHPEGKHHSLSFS

[3] = molecular target: Tyrosine-protein kinase JAK2 (Homo sapiens, UniProt O60674)
Tyrosine-protein kinase JAK2, sequence (O60674 whole entry): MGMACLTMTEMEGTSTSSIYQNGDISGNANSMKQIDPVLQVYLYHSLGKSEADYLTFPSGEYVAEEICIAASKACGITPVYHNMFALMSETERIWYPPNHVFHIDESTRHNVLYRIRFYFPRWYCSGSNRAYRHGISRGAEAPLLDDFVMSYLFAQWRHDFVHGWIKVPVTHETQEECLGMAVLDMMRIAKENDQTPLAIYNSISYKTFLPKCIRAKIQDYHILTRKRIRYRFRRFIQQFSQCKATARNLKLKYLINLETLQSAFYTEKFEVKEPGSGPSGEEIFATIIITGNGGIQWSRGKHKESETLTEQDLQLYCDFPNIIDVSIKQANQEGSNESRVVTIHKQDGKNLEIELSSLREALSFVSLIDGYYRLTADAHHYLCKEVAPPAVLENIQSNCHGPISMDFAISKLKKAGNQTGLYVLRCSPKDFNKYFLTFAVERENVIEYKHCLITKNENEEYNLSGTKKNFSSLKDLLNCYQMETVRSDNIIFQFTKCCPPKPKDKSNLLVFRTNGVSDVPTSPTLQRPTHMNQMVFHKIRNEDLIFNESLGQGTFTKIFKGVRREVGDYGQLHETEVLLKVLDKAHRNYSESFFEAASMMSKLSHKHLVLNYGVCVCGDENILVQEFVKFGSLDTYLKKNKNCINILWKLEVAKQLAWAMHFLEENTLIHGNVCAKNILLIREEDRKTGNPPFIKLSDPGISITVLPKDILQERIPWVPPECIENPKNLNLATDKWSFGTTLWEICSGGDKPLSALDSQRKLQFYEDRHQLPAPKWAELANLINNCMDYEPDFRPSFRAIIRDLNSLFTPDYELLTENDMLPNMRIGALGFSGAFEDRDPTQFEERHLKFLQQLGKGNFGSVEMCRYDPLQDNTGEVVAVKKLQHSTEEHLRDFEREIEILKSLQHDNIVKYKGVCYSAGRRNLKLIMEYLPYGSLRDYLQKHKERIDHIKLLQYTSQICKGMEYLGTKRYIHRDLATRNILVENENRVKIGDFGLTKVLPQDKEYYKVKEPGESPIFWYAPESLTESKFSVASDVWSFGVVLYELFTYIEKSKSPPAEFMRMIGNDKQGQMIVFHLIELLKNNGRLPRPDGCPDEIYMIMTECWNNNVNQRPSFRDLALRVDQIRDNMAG

Non-receptor tyrosine-protein kinase TYK2, sequence (P29597 whole entry): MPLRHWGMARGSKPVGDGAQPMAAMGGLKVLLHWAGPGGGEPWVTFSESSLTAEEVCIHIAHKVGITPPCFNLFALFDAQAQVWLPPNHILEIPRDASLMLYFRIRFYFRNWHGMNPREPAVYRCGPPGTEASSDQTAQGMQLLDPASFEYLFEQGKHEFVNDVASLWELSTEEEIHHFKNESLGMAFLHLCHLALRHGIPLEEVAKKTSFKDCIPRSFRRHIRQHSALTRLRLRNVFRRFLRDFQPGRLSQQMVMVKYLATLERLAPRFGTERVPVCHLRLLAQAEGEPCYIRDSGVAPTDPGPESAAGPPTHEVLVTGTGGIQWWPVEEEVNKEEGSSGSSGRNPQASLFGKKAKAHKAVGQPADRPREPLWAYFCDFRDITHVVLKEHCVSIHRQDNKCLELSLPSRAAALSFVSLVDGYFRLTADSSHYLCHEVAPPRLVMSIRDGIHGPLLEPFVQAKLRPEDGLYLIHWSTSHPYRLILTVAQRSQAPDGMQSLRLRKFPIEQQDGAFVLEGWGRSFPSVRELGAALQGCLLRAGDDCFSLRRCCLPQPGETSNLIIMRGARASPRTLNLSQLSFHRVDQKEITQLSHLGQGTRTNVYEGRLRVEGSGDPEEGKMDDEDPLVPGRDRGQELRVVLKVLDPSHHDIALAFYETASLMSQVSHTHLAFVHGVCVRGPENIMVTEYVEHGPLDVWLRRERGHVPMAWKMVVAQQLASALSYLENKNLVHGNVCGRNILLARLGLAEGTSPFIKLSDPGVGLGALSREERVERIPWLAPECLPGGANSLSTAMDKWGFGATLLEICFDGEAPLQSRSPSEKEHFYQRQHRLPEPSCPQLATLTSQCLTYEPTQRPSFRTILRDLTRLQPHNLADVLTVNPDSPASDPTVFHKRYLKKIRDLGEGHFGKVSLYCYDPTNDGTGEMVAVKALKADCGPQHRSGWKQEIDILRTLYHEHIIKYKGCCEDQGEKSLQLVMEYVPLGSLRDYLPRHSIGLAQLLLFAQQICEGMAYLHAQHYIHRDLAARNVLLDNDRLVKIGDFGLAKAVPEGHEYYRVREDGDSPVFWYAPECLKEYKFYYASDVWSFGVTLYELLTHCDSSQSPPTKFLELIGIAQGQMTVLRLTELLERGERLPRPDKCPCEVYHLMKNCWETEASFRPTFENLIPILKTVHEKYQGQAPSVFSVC

C=CC(=O)N1[C@@H]2CC[C@H]1C[C@H](Oc1cc(-c3ccc(O)cc3)cn3cncc13)C2 [US10851102, Example 10] was tested, and the Ki [1] was > 0.1 µM, the Ki [2] was < 0.0001 µM and the Ki [3] was > 0.1 µM.
